Measurements from PMC8315109 (Science signaling, 2021).

Columns and labels:
[1] = target: T1, Jupiter microtubule-associated homolog 2 (JPT2) (Homo sapiens, UniProt Q9H910); assay: […]-NAADP radioligand filtration binding, displacement by unlabeled NAADP
T1 sequence (Q9H910 1-218 isoform Q9H910-3): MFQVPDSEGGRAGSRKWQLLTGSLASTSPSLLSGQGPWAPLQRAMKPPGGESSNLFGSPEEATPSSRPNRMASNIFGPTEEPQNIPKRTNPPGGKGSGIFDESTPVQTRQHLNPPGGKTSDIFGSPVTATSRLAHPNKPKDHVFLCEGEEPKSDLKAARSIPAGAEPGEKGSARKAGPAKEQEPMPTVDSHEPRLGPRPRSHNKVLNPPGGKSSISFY

[2] = target: T1, Jupiter microtubule-associated homolog 2 (JPT2); assay: […]-NAADP radioligand filtration binding, displacement by HPLC-purified NADP

SMILES | IC50 [1] [nM] | IC50 [2] [nM]
Nc1ncnc2c1ncn2[C@@H]1O[C@H](COP(=O)(O)OP(=O)(O)OC[C@H]2O[C@@H]([n+]3cccc(C(=O)O)c3)[C@H](O)[C@@H]2O)[C@@H](O)[C@H]1OP(=O)(O)O [NAADP] | 20 ± 3.6 | –
NC(=O)c1ccc[n+]([C@@H]2O[C@H](COP(=O)(O)OP(=O)(O)OC[C@H]3O[C@@H](n4cnc5c(N)ncnc54)[C@H](OP(=O)(O)O)[C@@H]3O)[C@@H](O)[C@H]2O)c1 [NADP] | – | 334 ± 76
